Data on five molecules can be found in US7951834B2, “Angiotensin I-converting enzyme (ACE) inhibitors” (University of Cape Town, priority 2005, dated 2011).

As usually defined, the Ki is a measure of affinity in units of concentration, obtained from inhibition or displacement. The term melting point denotes the temperature, or range, at which the solid turns liquid.

The target in data set [1] is tACEdelta36NJ (tACE, C domain) (Homo sapiens, UniProt P12821). Put plainly: ACE inhibitory activity, fluorometric determination of phthaldialdehyde-derivatised His-Leu, tACE. It is filed as biochemical. The settings on record: for inhibitory activity for ACE as compared to lisinopril: in words; for Ki: substrate ZPHL, enzyme + inhibitor incubated 3 hours at ambient temperature. The procedure: (§1) The ACE inhibitory activity (as tabulated in Table 1) was measured by the fluorometric determination of phthaldialdehyde-derivatised histidylleucine, a product of the enzyme reaction according to the method of Almquist et al.,^12 with some modifications. For tACEdelta36NJ and N-domain inhibition using Z-Phe-His-Leu as substrate:—10 μL of 0.05 mg/mL enzyme+120 μL inhibitor was incubated at ambient temperature for 3 hours. Inhibitor concentrations ranged from 2.0 μM to 500 μM. A 3.0 μL aliquot of this was assayed for enzyme activity using 30 μL of 1.0 mM […]. This was incubated (in triplicate) for 30 mins at 37° C. and stopped with 180 μL solution of 0.28N NaOH. To this alkalized mixture 12 μL of o-phthaldialdehyde (150 mM) was added and the mixture incubated for another 10 mins at room temperature. Reactions were stopped by adding 26 μL of 3N HCl. Fluorescence was measured at Ex=360 nm; Em=486 nm, 5×5 slit width along with a His-Leu standard calibration curve fluorometer: Varian Cary Eclipse plate reader.
(§2) All assays included enzyme incubated with buffer in the absence of inhibitor (i.e. 0 μM inhibitor concentration).

The target in another data set is ACE N-domain (Homo sapiens, UniProt P12821). Put plainly: ACE inhibitory activity, fluorometric determination of phthaldialdehyde-derivatised His-Leu, N-domain. The class given is biochemical. The settings on record: substrate ZPHL; enzyme + inhibitor incubated 3 hours at ambient temperature; read-out: Ki (N-dom) ZPHL. The procedure:
as §1, §2

ACE N-domain, sequence (P12821 40-624 limits assumed): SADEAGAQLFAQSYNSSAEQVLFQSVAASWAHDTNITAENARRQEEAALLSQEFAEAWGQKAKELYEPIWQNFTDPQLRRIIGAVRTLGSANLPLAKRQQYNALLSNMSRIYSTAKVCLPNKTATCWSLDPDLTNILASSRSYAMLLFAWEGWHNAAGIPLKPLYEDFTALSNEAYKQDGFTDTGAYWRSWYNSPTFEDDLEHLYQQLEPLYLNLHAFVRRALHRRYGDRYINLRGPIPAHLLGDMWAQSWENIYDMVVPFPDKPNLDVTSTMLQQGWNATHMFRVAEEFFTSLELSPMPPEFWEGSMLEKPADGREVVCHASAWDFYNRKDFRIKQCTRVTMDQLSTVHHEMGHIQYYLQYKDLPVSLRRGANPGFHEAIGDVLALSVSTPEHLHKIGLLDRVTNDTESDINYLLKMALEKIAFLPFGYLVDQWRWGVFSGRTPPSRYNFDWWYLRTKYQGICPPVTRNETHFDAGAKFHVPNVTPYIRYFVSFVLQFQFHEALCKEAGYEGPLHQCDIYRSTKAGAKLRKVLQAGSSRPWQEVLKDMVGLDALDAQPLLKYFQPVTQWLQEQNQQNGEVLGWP
tACEdelta36NJ (tACE, C domain), sequence (P12821 642-1230 limits assumed): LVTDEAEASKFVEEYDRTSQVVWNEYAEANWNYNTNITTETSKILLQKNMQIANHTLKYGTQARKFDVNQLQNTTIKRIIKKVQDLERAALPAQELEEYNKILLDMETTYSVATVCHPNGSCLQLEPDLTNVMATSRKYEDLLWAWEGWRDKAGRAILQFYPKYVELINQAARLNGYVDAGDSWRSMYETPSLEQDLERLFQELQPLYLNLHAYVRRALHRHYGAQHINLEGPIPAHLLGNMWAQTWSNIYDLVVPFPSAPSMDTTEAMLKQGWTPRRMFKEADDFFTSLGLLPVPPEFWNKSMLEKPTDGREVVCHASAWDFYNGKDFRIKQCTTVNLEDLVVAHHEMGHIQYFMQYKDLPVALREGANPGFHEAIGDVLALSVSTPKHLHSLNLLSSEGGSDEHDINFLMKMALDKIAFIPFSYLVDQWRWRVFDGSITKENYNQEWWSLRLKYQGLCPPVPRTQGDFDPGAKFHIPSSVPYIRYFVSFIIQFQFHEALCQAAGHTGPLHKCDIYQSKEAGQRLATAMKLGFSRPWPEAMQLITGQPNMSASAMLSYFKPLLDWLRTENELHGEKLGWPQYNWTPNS

As to `O=C(N[C@@H](Cc1ccccc1)C(=O)CCC(=O)N1CCC[C@H]1C(=O)O)c1ccccc1` [Compound 5a, (5S)-5-[(N-benzoyl)amino]-4-oxo-6-phenyl-hexanoyl-L-proline], the “inhibitory activity for ACE as compared to lisinopril” value in data set [1] is “weak inhibitory activity”.

As for `O=C(CCC(=O)[C@H](Cc1ccccc1)NC(=O)c1ccccc1)N[C@@H](Cc1c[nH]c2ccccc12)C(=O)O` [Compound 5b, (5S)-5-[(N-benzoyl)amino]-4-oxo-6-phenyl-hexanoyl-L-tryptophan], the melting point was 171 to 173 °C. Further, at ACE N-domain, the Ki was 196 µM. Moreover, in data set [1], the “inhibitory activity for ACE as compared to lisinopril” value was “weak inhibitory activity” and the Ki was found to be 0.8 µM. In addition, the “C-domain specific (fold)” value in data set [1] (tACE (C domain) versus N-domain) is listed as 245 fold.

Turning to `O=C(CCC(=O)[C@H](Cc1ccccc1)NC(=O)c1ccccc1)N[C@@H](Cc1ccccc1)C(=O)O` [Compound 5c, (5S)-5-[(N-benzoyl)amino]-4-oxo-6-phenyl-hexanoyl-L-phenylalanine], at ACE N-domain, the Ki is 84.3 µM. Besides, in data set [1], the “inhibitory activity for ACE as compared to lisinopril” value is “weak inhibitory activity” and the inhibition constant (Ki) was 23.7 µM.

For the molecule `CC(C)(C)OC(=O)N[C@@H](Cc1ccccc1)C(=O)CCC(=O)N1CCC[C@H]1C(=O)O` [Compound 11a, (5S)-6-phenyl-5-[(tert-butyloxycarbonyl)-amino]-4-oxo-hexanoyl-L-proline], on ACE N-domain, the inhibitory constant (Ki) came out at 33.6 µM. The “domain selectivity (in words)” value in data set [1] (N-domain versus tACE (C domain)) is recorded as “inhibits N-domain more effectively than tACE”. Further, in data set [1], the “inhibitory activity for ACE as compared to lisinopril” value is on record as “weak inhibitory activity” and the inhibitory constant (Ki) amounted to 144 µM.

In turn, `CC(C)(C)OC(=O)N[C@@H](Cc1ccccc1)C(=O)CCC(=O)N[C@@H](Cc1c[nH]c2ccccc12)C(=O)O` [Compound 11b, (5S)-6-phenyl-5-[(tert-butyloxycarbonyl)-amino]-4-oxo-hexanoyl-L-tryptophan] yielded a melting point of 141 to 143 °C.
